What was measured:
Assay in all cases: relative viability (nuclei count vs DMSO), 5 days (fraction); higher = more cells survive
OSI-027 + Palbociclib = compound: COc1cccc2cc(-c3nc([C@H]4CC[C@H](C(=O)O)CC4)n4ncnc(N)c34)[nH]c12 [OSI-027] + CC(=O)c1c(C)c2cnc(Nc3ccc(N4CCNCC4)cn3)nc2n(C2CCCC2)c1=O [Palbociclib] (partner 0.5 µM)
Outline: (§1)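 Lung cancer cell lines, seeded in 1536-well plates, were treated the following day by pin tool with a single drug or with five library-drug doses (not always all listed) in √10 steps on top of a fixed anchor-drug dose. Cells were fixed and nuclei stained in one step after 5 days, and nuclei were counted. Relative viability is the nuclei count for treated wells divided by that for vehicle wells, reported as medians of duplicate plates.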

Vemurafenib + Phenformin = compound: CCCS(=O)(=O)Nc1ccc(F)c(C(=O)c2c[nH]c3ncc(-c4ccc(Cl)cc4)cc23)c1F [Vemurafenib] + N=C(N)NC(=N)NCCc1ccccc1 [Phenformin] (partner 250 µM)
Outline: as §1

Alpelisib + Trametinib = compound: Cc1nc(NC(=O)N2CCC[C@H]2C(N)=O)sc1-c1ccnc(C(C)(C)C(F)(F)F)c1 [Alpelisib] + CC(=O)Nc1cccc(-n2c(=O)n(C3CC3)c(=O)c3c(Nc4ccc(I)cc4F)n(C)c(=O)c(C)c32)c1 [Trametinib] (partner 0.02 µM)
Outline: as §1

Vemurafenib + Olaparib = compound: CCCS(=O)(=O)Nc1ccc(F)c(C(=O)c2c[nH]c3ncc(-c4ccc(Cl)cc4)cc23)c1F [Vemurafenib] + O=C(c1cc(Cc2n[nH]c(=O)c3ccccc23)ccc1F)N1CCN(C(=O)C2CC2)CC1 [Olaparib] (partner 8 µM)
Outline: as §1

UMC-11 gave a relative viability (OSI-027 + Palbociclib; first compound 0.01 µM) of 0.314, a relative viability (OSI-027 + Palbociclib; first compound 0.03162 µM) of 0.371 and a relative viability (OSI-027 + Palbociclib; first compound 0.1 µM) of 0.307. It also gave a relative viability (OSI-027 + Palbociclib; first compound 0.3162 µM) of 0.301, a relative viability (OSI-027 + Palbociclib; first compound 1 µM) of 0.314 and a relative viability (Vemurafenib + Phenformin; first compound 0.03162 µM) of 0.29. It also gave a relative viability (Vemurafenib + Phenformin; first compound 0.1 µM) of 0.315, a relative viability (Vemurafenib + Phenformin; first compound 0.3162 µM) of 0.227 and a relative viability (Vemurafenib + Phenformin; first compound 1 µM) of 0.315. It also gave a relative viability (Alpelisib + Trametinib; first compound 0.04 µM) of 0.696, a relative viability (Alpelisib + Trametinib; first compound 0.1265 µM) of 0.628 and a relative viability (Alpelisib + Trametinib; first compound 0.4 µM) of 0.875. The relative viability (Alpelisib + Trametinib; first compound 1.265 µM) was 0.67, the relative viability (Alpelisib + Trametinib; first compound 4 µM) was 0.68 and the relative viability (Vemurafenib + Olaparib; first compound 0.03162 µM) was 0.391. For the same cell line, the relative viability (Vemurafenib + Olaparib; first compound 0.1 µM) was 0.4, the relative viability (Vemurafenib + Olaparib; first compound 0.3162 µM) was 0.392 and the relative viability (Vemurafenib + Olaparib; first compound 1 µM) was 0.375.
